Results reported in patent US8993635B2, “Method of increasing or maintaining the reproductive performance of sows” (Pork CRC Ltd, priority 2010, dated 2015).
Marks after values point to notes of the source that are not given here.

Key:
[1] = system: Large White/Landrace parity 1 sows; assay: Paylean (ractopamine) treatment during first lactation: maternal catabolism, post-weaning fertility, piglet growth, milk composition (Example 2); type: in vivo, pig; details: for MMD loss in lactation (mm): maximum eye muscle depth; for Live weight loss in lactation (kg) Days 1-7 / Live weight loss in lactation (kg) Days 8-14 / Live weight loss in lactation (kg) Days 15-20: parity 1 sows, ractopamine 10 ppm days 1-13, 20 ppm from day 14 until mating; for 2nd litter size: Born alive / 2nd litter size: Total born: second litter; for Proportion sows exhibiting oestrus: within 10 days of weaning
Protocol: This experiment was conducted at the University of Adelaide's Pig and Poultry Production Institute (PPPI) at Roseworthy, South Australia, with approval from the animal ethics committees of Primary Industries and Resources South Australia and The University of Adelaide. The experiment used sixty Large White/Landrace parity 1 sows, and was conducted in four replicates: replicates one and two were run in October and November 2006, respectively (spring); and replicates three and four were run in March and April 2007, respectively (autumn).
At entry into the farrowing shed, Sixty Large White/Landrace first parity sows were weighed, and P2 backfat and maximum eye muscle depth (MMD) measured. Sows were then stratified according to both liveweight and body composition and allocated to one of two treatment groups (n=30 sows). One group (Control) received a standard lactation diet (0.71 g avail. lys/MJ DE) throughout lactation, whilst the other group (Ractopamine) received the same standard lactation diet but supplemented with ractopamine at 10 parts per million (ppm) from days 1-13 of lactation and 20 ppm from day 14 of lactation until mating. Dietary treatments commenced on day 1 of lactation (Day 0=first 24 hours after farrowing). During lactation, the amount of feed offered each day was stepped up gradually, reaching 6 kg/day by day 7 of lactation, and was fed over three meals per day, with daily feed disappearance recorded for each sow. Weaning took place 21 days after farrowing, and between weaning and first Al sows received 3 kg/day of their respective diets. Sows were weighed, and P2 backfat and MMD measured on days 1, 7, 14 and 20 of lactation. Gilts were weighed prior to being fed, and P2 backfat and MMD were measured over the last rib 65 mm down from the vertebrae by an experienced commercial operator using a 3.5 MHz linear probe (Ausonics Impact). Litter size was standardised to 9 piglets within 24 hours of farrowing, with piglets receiving only maternal milk as their feed source and weighed on days 1, 7, 13 and 20 of their mother's lactation. Maternal milk samples were collected on days 3, 13 and 20 of lactation and analysed for fat and protein content.
After weaning, sows were housed in groups of three or four. Boar exposure commenced on the fourth day after weaning, consisted of 15 minutes of full, physical boar contact and was conducted in a detection mating area (DMA). At their first oestrus after weaning, sows two artificial inseminations (AIs), 24 hours apart.
All Als took place in the DMA, with fence-line contact with a boar during the procedure. Inseminations were performed as per standard industry practice using disposable spirette catheters, with each insemination consisting of an 80 ml dose of fresh, extended semen (3×10^9 spermatozoa per inseminate; <4 days old). Semen used for this experiment was purchased from a commercial artificial insemination collection centre (SABOR Pty. Ltd, Clare, South Australia). Sows not detected in oestrus by 10 days after weaning were described as anoestrous.

[2] = system: large white first parity sows; assay: Supplementary ractopamine in the lactation diet: sow weight loss and subsequent reproductive performance (Example 1); type: in vivo, pig
Source text: Sixty large white first parity sows were allocated to one of two treatment groups (n=30 sows/treatment). One group (CONT) received a standard lactation diet (0.71 g available lysine/MJ digestible energy (DE)) throughout lactation, whilst the other group (RAC) received the standard lactation diet supplemented with ractopamine at 10 ppm from d 1-13 of lactation and 20 ppm from d 14 of lactation until mating. The amount of feed offered each day was stepped up gradually, reaching 5 kg/day by d 4 of lactation, and maintained at this level for the rest of lactation. Sows were weighed and P2 backfat measured on d 1, 14 and 20 of lactation, the litter size standardised to 9 piglets within 24 hours of lactation. Sows were weaned on d 21 of lactation, with boar exposure commencing 4 d after weaning and sows artificially inseminated twice at their first oestrus post-weaning. Subsequent reproductive performance of all sows was recorded: weaning-to-oestrus interval (WOI) and second litter size. Sows failing to epress eostrus within 10 d of weaning were deemed to be anoestrus and allocated a nominal weaning-to-oestrus interval of 15 d. A general analysis of variance model was used to study the effects of RAC supplementation on sow weight loss during lactation and subsequent reproductive performance.

**Q.** For `CC(CCc1ccc(O)cc1)NCC(O)c1ccc(O)cc1` (racemic) [Ractopamine, ractopamine], which “Proportion mated sows pregnant” value ([1]; after two AIs at first oestrus post-weaning) is on record?
**A.** The value was 0.91.

**Q.** What about the “P2 backfat loss in lactation (mm)” value [1] of the same compound?
**A.** Its value is “lost significantly less”.

**Q.** What about the “P2 backfat loss in lactation (mm)” value ([1]; listed as Ractoparnine) of the same compound?
**A.** Its value is 2.44^b mm.

**Q.** And the “MMD loss in lactation (mm)” value [1]?
**A.** The value was “similar”.

**Q.** What about the “MMD loss in lactation (mm)” value ([1]; listed as Ractoparnine) of the same compound?
**A.** Its value is 2.1 mm.

**Q.** And the “Live weight loss in lactation (kg) Days 1-7” value [1]?
**A.** Its value is “similar”.

**Q.** What about the “Live weight loss in lactation (kg) Days 8-14” value [1] of the same compound?
**A.** Its value is “similar”.

**Q.** And the “Live weight loss in lactation (kg) Days 15-20” value [1]?
**A.** The value was “lost significantly less”.

**Q.** And the “Live weight loss in lactation (kg) Days 1-7” value ([1]; listed as Ractoparnine)?
**A.** Its value is 2.43 kg.

**Q.** What about the “Live weight loss in lactation (kg) Days 8-14” value ([1]; listed as Ractoparnine) of the same compound?
**A.** The value was 2.98 kg.

**Q.** And the “Live weight loss in lactation (kg) Days 15-20” value ([1]; listed as Ractoparnine)?
**A.** The value was 0.66^b kg.

**Q.** What about the “2nd litter size: Born alive” value [1] of the same compound?
**A.** Its value is “tendency (P=0.064) for the number of piglets born alive-at the second litter to be higher”.

**Q.** And the “2nd litter size: Total born” value [1]?
**A.** The value was “numerical, but not significant, increase”.

**Q.** And the “2nd litter size: Born alive” value ([1]; listed as Ractoparnine)?
**A.** Its value is 9.48**.

**Q.** What about the “2nd litter size: Total born” value ([1]; listed as Ractoparnine) of the same compound?
**A.** Its value is 9.66.

**Q.** And the “Weaning-to-oestrus (d)” value ([1]; sows not in oestrus within 10 days assigned nominal 15 days)?
**A.** Its value is “similar”.

**Q.** What about the “Weaning-to-oestrus” value ([1]; sows not in oestrus within 10 days assigned nominal 15 days, listed as Ractoparnine) of the same compound?
**A.** Its value is 6.39 days.

**Q.** And the “Proportion sows exhibiting oestrus” value [1]?
**A.** The value was “numerical, but not significant, reduction in the proportion of Control compared to Ractopamine sows”.

**Q.** What about the “Proportion sows exhibiting oestrus” value ([1]; listed as Ractoparnine) of the same compound?
**A.** The value was 0.95.

**Q.** And the “weaning-to-oestrus interval (WOI)” value ([2]; anoestrus sows allocated nominal 15 d)?
**A.** Its value is 6.4 ± 0.63 days.

**Q.** What about the “Lactation weight loss (kg) Days 1-14” value ([2]; first parity sows, ractopamine 10 ppm d 1-13, 20 ppm from d 14) of the same compound?
**A.** The value was 4.6 ± 1.41 kg.

**Q.** And the “Piglets born at second litter, Total born” value ([2]; subsequent (second) litter)?
**A.** The value was 9.7 ± 0.54.

**Q.** What about the “proportion of sows exhibiting oestrus within 10 d of weaning” value ([2]; within 10 d of weaning) of the same compound?
**A.** Its value is 0.95±0.08.
